According to patent US20050026846A1, “Pharmaceutical compositions comprising alkanoyl L-carnitine in combination with a statine for treating pathologies brought about by an altered lipid metabolism” (SIGMA-TAU INDUSTRIE FARMACEUTICHE RIUNITE S.p.A., priority 1997, published 2005):

How the values were obtained:
Assay type in all cases: in vivo, human
[1] = system: hypertriglyceridaemic patients; experiment: Clinical study: cholesterolaemia (blood-chemistry tests); conditions: for Cholesterolaemia, statistical significance (p) vs baseline: propionyl L-carnitine 2 g/day, Student's t-test for paired data
Description: (§1) Eight hypertriglyceridaemic patients (3 males and 5 females) were recruited for the study, with a mean age of 65 years (range: 52-70), presenting mean triglyceridaemia values of 213.0±21.18 mg % and mean cholesterolaemia values of 158.1±25.90 mg %, who were put on a dietary regimen consisting in 40 Kcal/kg, 1.2 g/kg proteins and 1.4 g/kg lipids daily.
(§2) After baseline determinations of cholesterolaemia, triglyceridaemia, bilirubinaemia, alkaline phosphatase, protidaemia, GOT and GPT, all subjects took propionyl L-carnitine 2 g/day os for 60 days, which was discontinued on day 61 for a 30-day wash-out period. Simvastatin was then administered at a dose of 10 mg/day os in the evening for 30 days, followed by a further 30-day washout period and then by another 30-day period during which propionyl L-carnitine 1.5 g/day os and simvastatin 5 mg/day os were administered simultaneously.
(§3) Blood-chemistry tests were performed before and after each course of drug treatment and at the end of each wash-out period. The data obtained were subjected to statistical analysis using Student's t-test for paired data (Table 1).

[2] = system: hypertriglyceridaemic patients; experiment: Clinical study: triglyceridaemia (blood-chemistry tests); conditions: for Triglyceridaemia, statistical significance (p) vs baseline: propionyl L-carnitine 2 g/day, Student's t-test for paired data
Description: as §1, §2, §3

[3] = system: hypertriglyceridaemic patients; experiment: Clinical study: side effects; conditions: propionyl L-carnitine 2 g/day or 1.5 g/day os; simvastatin 10 or 5 mg/day os
Description: as §1, §2
All patients completed the study according to the procedures described. […] During the wash-out period the mean triglyceridaemia value recorded was 202.5±9.71 mg %, whereas the mean baseline value was 213.0±21.1 1 mg % (Table 2).

[4] = 30 days os, simvastatin 10 mg/day, combination 1.5 g/day + 5 mg/day

Row | Compound | Cholesterolaemia, statistical significance (p) vs baseline [1, 4] | mean cholesterolaemia value after treatment ([1]; after 30 days os, simvastatin 10 mg/day, or propionyl L-carnitine 1.5 g/day + simvastatin 5 mg/day, baseline 158.12±25.90 mg %, 8 patients) [mg %] | mean post-treatment triglyceride value ([2]; after 30 days os, simvastatin 10 mg/day, or propionyl L-carnitine 1.5 g/day + simvastatin 5 mg/day, baseline 213.0±21.18 mg %, 8 patients) [mg %] | Cholesterolaemia, statistical significance (p) vs baseline ([1]; 60 days os) | side effects attributable to the drugs during the study period [3] | Triglyceridaemia, statistical significance (p) vs baseline [2, 4] | Triglyceridaemia, statistical significance (p) vs baseline ([2]; 30 days os, simvastatin 10 mg/day, combination 1.5 g/day + 5 mg/day, listed as Propionyl L-carnitine) | Triglyceridaemia, statistical significance (p) vs baseline ([2]; 60 days os) | Triglyceridaemia, statistical significance (p) vs baseline ([2]; 60 days os, listed as Propionyl L-carnitine) | triglyceridaemia after treatment, significance (p): propionyl L-carnitine vs simvastatin ([2]; each administered alone)
1 | CCC(C)(C)C(=O)O[C@H]1C[C@@H](C)C=C2C=C[C@H](C)[C@H](CC[C@@H]3C[C@@H](O)CC(=O)O3)[C@H]21 [simvastatin, reference compound] | p < 0.0585 | 156.75±22.82 | 193.8±22.63 |  |  |  |  |  |  | 
2 | CCC(=O)O[C@H](CC(=O)[O-])C[N+](C)(C)C [propionyl L-carnitine] | p < 0.4795 |  |  | p < 0.0198 | no side effects | < 0.3671 | p < 0.3671 | < 0.0272 | p < 0.0272 | < 0.167
